Test results: ChEMBL document CHEMBL3885861, “Open TG-GATES”

Species: Rattus norvegicus
Assay: Open TG-GATES - Regimen: Daily Repeat
Assay type: toxicity, organism-based, Sprague-Dawley
Set-up: regimen Daily Repeat, gender Male, age 6 weeks
Conditions: in vivo, po, 3 mg/kg, route gavage, dose level Low; for APTT / Bas / Eos / Fbg / Hb / Ht / Lym / MCH / MCHC / MCV / Mono / Neu / PT / Plat / RBC / Ret / WBC: tissue Blood; for KIDNEY_L / KIDNEY_R / KIDNEY_TOTAL: tissue Kidney; for LIVER: tissue Liver; for A/G / ALP / ALT / AST / BUN / CRE / Ca / Cl / DBIL / GLC / IP / K / LDH / Na / PL / RALB / TBIL / TC / TG / TP / gamma-GTP: tissue Plasma

Nc1c2c(nc3ccccc13)CCCC2 [TACRINE]
TERMINAL_BW (72 h, time 3 day): 218.9 g
APTT (72 h, time 3 day): 21 s
Bas (72 h, time 3 day): 0%
Eos (72 h, time 3 day): 0.8%
Fbg (72 h, time 3 day): 309.2 mg/dL
Hb (72 h, time 3 day): 13.8 g/dL
Ht (72 h, time 3 day): 39.3%
Lym (72 h, time 3 day): 80.2%
MCH (72 h, time 3 day): 21 pg
MCHC (72 h, time 3 day): 35%
MCV (72 h, time 3 day): 60.1 fL
Mono (72 h, time 3 day): 2.8%
Neu (72 h, time 3 day): 15.2%
PT (72 h, time 3 day): 16.1 s
Plat (72 h, time 3 day): 115.7 x10_4/uL
RBC (72 h, time 3 day): 655.6 x10_4/ul
Ret (72 h, time 3 day): 5.8%
WBC (72 h, time 3 day): 128.8 x10_2/uL
KIDNEY_L (72 h, time 3 day): 0.9 g
KIDNEY_R (72 h, time 3 day): 1 g
KIDNEY_TOTAL (72 h, time 3 day): 1.9 g
LIVER (72 h, time 3 day): 10 g
A/G (72 h, time 3 day): 1.3
ALP (72 h, time 3 day): 1457.8 IU/L
ALT (72 h, time 3 day): 48.6 IU/L
AST (72 h, time 3 day): 78.4 IU/L
BUN (72 h, time 3 day): 17.8 mg/dL
CRE (72 h, time 3 day): 0.2 mg/dL
Ca (72 h, time 3 day): 10.8 mg/dL
Cl (72 h, time 3 day): 106.8 meq/L
DBIL (72 h, time 3 day): 0.004 mg/dL
GLC (72 h, time 3 day): 190.2 mg/dL
IP (72 h, time 3 day): 7.2 mg/dL
K (72 h, time 3 day): 4.2 meq/L
LDH (72 h, time 3 day): 313 IU/L
Na (72 h, time 3 day): 142 meq/L
PL (72 h, time 3 day): 168 mg/dL
RALB (72 h, time 3 day): 3.2 g/dL
TBIL (72 h, time 3 day): 0.016 mg/dL
TC (72 h, time 3 day): 85.6 mg/dL
TG (72 h, time 3 day): 111 mg/dL
TP (72 h, time 3 day): 5.6 g/dL
gamma-GTP (72 h, time 3 day): 1 IU/L
TERMINAL_BW ([…], time 7 day): 247.7 g
TERMINAL_BW ([…], time 14 day): 303.9 g
TERMINAL_BW ([…], time 28 day): 351.6 g
APTT ([…], time 7 day): 21.5 s
Bas ([…], time 7 day): 0%
Eos ([…], time 7 day): 1%
Fbg ([…], time 7 day): 301 mg/dL
Hb ([…], time 7 day): 13.7 g/dL
Ht ([…], time 7 day): 38.9%
Lym ([…], time 7 day): 81.6%
MCH ([…], time 7 day): 21.3 pg
MCHC ([…], time 7 day): 35.3%
MCV ([…], time 7 day): 60.3 fL
Mono ([…], time 7 day): 2.2%
Neu ([…], time 7 day): 14.6%
PT ([…], time 7 day): 16.1 s
Plat ([…], time 7 day): 112.9 x10_4/uL
RBC ([…], time 7 day): 645.2 x10_4/ul
Ret ([…], time 7 day): 6%
WBC ([…], time 7 day): 119.7 x10_2/uL
APTT ([…], time 14 day): 23.3 s
Bas ([…], time 14 day): 0%
Eos ([…], time 14 day): 1%
Fbg ([…], time 14 day): 309.4 mg/dL
Hb ([…], time 14 day): 14.5 g/dL
Ht ([…], time 14 day): 41.1%
Lym ([…], time 14 day): 79.8%
MCH ([…], time 14 day): 21.1 pg
MCHC ([…], time 14 day): 35.4%
MCV ([…], time 14 day): 59.5 fL
Mono ([…], time 14 day): 1.4%
Neu ([…], time 14 day): 17.4%
PT ([…], time 14 day): 15.5 s
Plat ([…], time 14 day): 132.9 x10_4/uL
RBC ([…], time 14 day): 690.8 x10_4/ul
Ret ([…], time 14 day): 4.6%
WBC ([…], time 14 day): 104.3 x10_2/uL
APTT ([…], time 28 day): 23.8 s
Bas ([…], time 28 day): 0%
Eos ([…], time 28 day): 1%
Fbg ([…], time 28 day): 294.8 mg/dL
Hb ([…], time 28 day): 15.6 g/dL
Ht ([…], time 28 day): 42.8%
Lym ([…], time 28 day): 84%
MCH ([…], time 28 day): 20.1 pg
MCHC ([…], time 28 day): 36.5%
MCV ([…], time 28 day): 55.2 fL
Mono ([…], time 28 day): 1.6%
Neu ([…], time 28 day): 12.6%
PT ([…], time 28 day): 16.3 s
Plat ([…], time 28 day): 99.5 x10_4/uL
RBC ([…], time 28 day): 776.2 x10_4/ul
Ret ([…], time 28 day): 2.5%
WBC ([…], time 28 day): 118.7 x10_2/uL
KIDNEY_L ([…], time 7 day): 1 g
KIDNEY_R ([…], time 7 day): 1.1 g
KIDNEY_TOTAL ([…], time 7 day): 2.1 g
KIDNEY_L ([…], time 14 day): 1.2 g
KIDNEY_R ([…], time 14 day): 1.2 g
KIDNEY_TOTAL ([…], time 14 day): 2.4 g
KIDNEY_L ([…], time 28 day): 1.3 g
KIDNEY_R ([…], time 28 day): 1.2 g
KIDNEY_TOTAL ([…], time 28 day): 2.5 g
LIVER ([…], time 7 day): 11 g
LIVER ([…], time 14 day): 13.3 g
LIVER ([…], time 28 day): 13.9 g
A/G ([…], time 7 day): 1.2
ALP ([…], time 7 day): 1691 IU/L
ALT ([…], time 7 day): 37.2 IU/L
AST ([…], time 7 day): 68.2 IU/L
BUN ([…], time 7 day): 18.6 mg/dL
CRE ([…], time 7 day): 0.2 mg/dL
Ca ([…], time 7 day): 10.7 mg/dL
Cl ([…], time 7 day): 108 meq/L
DBIL ([…], time 7 day): 0 mg/dL
GLC ([…], time 7 day): 187.8 mg/dL
IP ([…], time 7 day): 7.4 mg/dL
K ([…], time 7 day): 4.1 meq/L
LDH ([…], time 7 day): 156.8 IU/L
Na ([…], time 7 day): 142.6 meq/L
PL ([…], time 7 day): 158 mg/dL
RALB ([…], time 7 day): 3.1 g/dL
TBIL ([…], time 7 day): 0.028 mg/dL
TC ([…], time 7 day): 81.6 mg/dL
TG ([…], time 7 day): 101.2 mg/dL
TP ([…], time 7 day): 5.7 g/dL
gamma-GTP ([…], time 7 day): 1.6 IU/L
A/G ([…], time 14 day): 1.2
ALP ([…], time 14 day): 1333.2 IU/L
ALT ([…], time 14 day): 39.2 IU/L
AST ([…], time 14 day): 65.2 IU/L
BUN ([…], time 14 day): 18.2 mg/dL
CRE ([…], time 14 day): 0.2 mg/dL
Ca ([…], time 14 day): 10.8 mg/dL
Cl ([…], time 14 day): 107.4 meq/L
DBIL ([…], time 14 day): 0 mg/dL
GLC ([…], time 14 day): 191.6 mg/dL
IP ([…], time 14 day): 6.5 mg/dL
K ([…], time 14 day): 4.2 meq/L
LDH ([…], time 14 day): 164 IU/L
Na ([…], time 14 day): 142 meq/L
PL ([…], time 14 day): 153 mg/dL
RALB ([…], time 14 day): 3.2 g/dL
TBIL ([…], time 14 day): 0.018 mg/dL
TC ([…], time 14 day): 75.6 mg/dL
TG ([…], time 14 day): 121.4 mg/dL
TP ([…], time 14 day): 5.9 g/dL
gamma-GTP ([…], time 14 day): 1.8 IU/L
A/G ([…], time 28 day): 1.1
ALP ([…], time 28 day): 1169.6 IU/L
ALT ([…], time 28 day): 38.2 IU/L
AST ([…], time 28 day): 67.6 IU/L
BUN ([…], time 28 day): 18.8 mg/dL
CRE ([…], time 28 day): 0.2 mg/dL
Ca ([…], time 28 day): 10.3 mg/dL
Cl ([…], time 28 day): 107.6 meq/L
DBIL ([…], time 28 day): 0 mg/dL
GLC ([…], time 28 day): 190.6 mg/dL
IP ([…], time 28 day): 5.9 mg/dL
K ([…], time 28 day): 3.9 meq/L
LDH ([…], time 28 day): 137 IU/L
Na ([…], time 28 day): 142.6 meq/L
PL ([…], time 28 day): 140 mg/dL
RALB ([…], time 28 day): 3.2 g/dL
TBIL ([…], time 28 day): 0.004 mg/dL
TC ([…], time 28 day): 71.8 mg/dL
TG ([…], time 28 day): 98.6 mg/dL
TP ([…], time 28 day): 6 g/dL
gamma-GTP ([…], time 28 day): 1 IU/L
